Assay results reported in patent US10196425B2, “Peptide compositions” (RHYTHM PHARMACEUTICALS, INC., priority 2013, dated 2019).
Like-named read-outs stand apart in the source and are kept apart here. Bridge positions count the residues as written; N and C are the ends. Square brackets hold non-standard residues; d marks the D form. Peptide text beside a SMILES is read from it. dPhe(4-F) = N[C@H](Cc1ccc(F)cc1)C(=O)O; hCys = N[C@@H](CCS)C(=O)O

Assays:
Format in all cases: cell-based
MC1R = MC1R (Homo sapiens, UniProt Q01726); assay: cAMP assay (β-galactosidase reporter, cAMP Hunter), MC1R; settings: for Ratios of EC50 values MC ¼: EC50(MC1R)/EC50(MC4R)
Text: (§1) cAMP Accumulation Measurement Via a β-Galactosidase (β-Gal) Reporter System
(§2) A chemiluminescence readout system that uses an enzyme fragment complementation (EFC) system with β-galactosidase (β-Gal) as the functional reporter system was used. This assay system for various melanocortin receptor systems is commercially available (cAMP Hunter GPCR assay system, Discoverx Corp, Fremont, Calif.). This assay utilizes the β-Gal enzyme that is split into two complementary portions; EA for Enzyme Acceptor and ED for Enzyme Donor. In the assay, the ED portion fused to cAMP is made to compete with cAMP generated by cells for binding to a cAMP-specific antibody. The EA is then added to form active β-Gal with any unbound ED-cAMP.
(§3) Briefly, 10000 cells per well are plated overnight and each well (cells incubated with 10 μl assay buffer) is then incubated with 4× serial concentration of the test compound in the cell assay buffer (5 μL) and cAMP antibody reagent (5 μL) for 30 min at 37° C. The cell lysis buffer (20 μL) containing ED-cAMP coupled enzyme fragment and the reporter substrate (Emerald II-Galacton Star, 5:1) is then added and incubated for 60 min at room temperature. Next, 20 μL of EA β-Gal fragment reagent is added.

MC3R = MC3R (Homo sapiens, UniProt P41968); assay: cAMP assay (β-galactosidase reporter, cAMP Hunter), MC3R; settings: for Ratios of EC50 values MC ¾: EC50(MC3R)/EC50(MC4R)
Text: as §1, §2, §3

MC4R = MC4R (Homo sapiens, UniProt P32245); assay: cAMP assay (β-galactosidase reporter, cAMP Hunter), MC4R
Text: as §1, §2, §3

MC5R = MC5R (Homo sapiens, UniProt P33032); assay: cAMP assay (β-galactosidase reporter, cAMP Hunter), MC5R; settings: for Ratios of EC50 values MC 5/4: EC50(MC5R)/EC50(MC4R)
Text: as §1, §2, §3

[1] = agonist cAMP stimulation, read-out: cAMP Assay (EC-50) MC1R
[2] = agonist cAMP stimulation, read-out: cAMP Assay (EC-50) MC3R
[3] = agonist cAMP stimulation, read-out: cAMP Assay (EC-50) MC4R
[4] = agonist cAMP stimulation, read-out: cAMP Assay (EC-50) MC5R
[5] = agonist cAMP stimulation, in uM, read-out: cAMP Assay (EC-50) MC3R

Chain of MC3R (P41968 whole entry): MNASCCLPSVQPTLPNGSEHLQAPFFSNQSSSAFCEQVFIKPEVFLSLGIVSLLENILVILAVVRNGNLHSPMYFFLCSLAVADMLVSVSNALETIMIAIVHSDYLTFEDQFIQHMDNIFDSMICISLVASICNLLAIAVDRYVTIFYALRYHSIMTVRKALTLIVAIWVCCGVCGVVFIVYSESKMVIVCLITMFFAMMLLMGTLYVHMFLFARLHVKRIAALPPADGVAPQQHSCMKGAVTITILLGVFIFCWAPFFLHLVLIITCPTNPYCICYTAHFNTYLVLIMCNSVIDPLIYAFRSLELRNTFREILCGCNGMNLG
Chain of MC4R (P32245 whole entry): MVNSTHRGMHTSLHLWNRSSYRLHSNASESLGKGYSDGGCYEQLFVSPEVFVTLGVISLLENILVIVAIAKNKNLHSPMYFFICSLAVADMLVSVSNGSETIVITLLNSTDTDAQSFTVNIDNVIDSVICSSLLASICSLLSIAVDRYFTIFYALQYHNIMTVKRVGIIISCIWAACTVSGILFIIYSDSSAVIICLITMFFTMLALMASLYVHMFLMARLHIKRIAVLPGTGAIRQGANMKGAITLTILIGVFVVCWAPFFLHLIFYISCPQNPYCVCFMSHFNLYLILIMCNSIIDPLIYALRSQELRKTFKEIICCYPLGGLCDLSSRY
Chain of MC5R (P33032 whole entry): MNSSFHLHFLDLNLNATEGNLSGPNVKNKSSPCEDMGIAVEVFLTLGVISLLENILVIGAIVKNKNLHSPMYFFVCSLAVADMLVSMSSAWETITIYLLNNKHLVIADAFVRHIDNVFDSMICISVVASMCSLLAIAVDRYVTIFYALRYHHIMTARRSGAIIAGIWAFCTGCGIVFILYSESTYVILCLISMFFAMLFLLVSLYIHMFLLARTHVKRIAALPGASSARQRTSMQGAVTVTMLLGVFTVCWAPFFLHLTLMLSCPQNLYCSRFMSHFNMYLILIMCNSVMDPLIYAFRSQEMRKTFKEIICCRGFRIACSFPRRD
Chain of MC1R (Q01726 whole entry): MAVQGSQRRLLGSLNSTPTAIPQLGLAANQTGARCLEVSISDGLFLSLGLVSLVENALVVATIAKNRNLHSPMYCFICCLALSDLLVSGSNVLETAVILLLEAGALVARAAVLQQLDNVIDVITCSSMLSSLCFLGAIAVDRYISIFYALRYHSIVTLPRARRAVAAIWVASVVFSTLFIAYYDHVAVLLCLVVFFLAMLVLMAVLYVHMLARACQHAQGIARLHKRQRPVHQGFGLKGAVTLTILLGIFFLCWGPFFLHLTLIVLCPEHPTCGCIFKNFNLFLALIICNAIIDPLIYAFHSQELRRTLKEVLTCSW

Row | SMILES | Ratios of EC50 values MC ¼ (MC1R) | EC50 (MC1R; [1]) | Ratios of EC50 values MC ¾ (MC3R) | EC50 (MC3R; [2]) | EC50 (MC4R; [3]) | Ratios of EC50 values MC 5/4 (MC5R) | EC50 (MC5R; [4]) | EC50 (MC1R) | EC50 (MC3R) | EC50 (MC4R) | EC50 (MC5R) | EC50 (MC3R; [5])
1 | CC(=O)N[C@@H](CCCNC(=N)N)C(=O)N[C@H]1CSSC[C@@H](C(N)=O)NC(=O)[C@H](Cc2c[nH]c3ccccc23)NC(=O)[C@H](CCCNC(=N)N)NC(=O)[C@@H](Cc2ccccc2)NC(=O)[C@H](Cc2c[nH]cn2)NC(=O)[C@@H](CC(C)C)NC1=O [Compound 1, Ac-Arg-cyclo[Cys-D-Leu-His-D-Phe-Arg-Trp-Cys]-NH2] | 0.68 | 0.47 nM | 1.13 | 0.00079 µM | 0.7 nM | 130 | 91 nM | – | – | – | – | –
2 | CC[C@@H](C)[C@H]1NC(=O)[C@@H](NC(=O)[C@H](CCCNC(=N)N)NC(C)=O)CSSC[C@@H](C(N)=O)NC(=O)[C@H](Cc2c[nH]c3ccccc23)NC(=O)[C@H](CCCNC(=N)N)NC(=O)[C@@H](Cc2ccccc2)NC(=O)[C@H](Cc2c[nH]cn2)NC1=O [Compound 2, Ac-Arg-cyclo[Cys-D-Ile-His-D-Phe-Arg-Trp-Cys]-NH2] | 0.69 | 0.69 nM | 0.96 | 0.00096 µM | 1 nM | 420 | 420 nM | – | – | – | – | –
3 | CC(=O)N[C@@H](CCCNC(=N)N)C(=O)N[C@H]1CSSC[C@@H](C(N)=O)NC(=O)[C@H](Cc2c[nH]c3ccccc23)NC(=O)[C@H](CCCNC(=N)N)NC(=O)[C@@H](Cc2ccccc2)NC(=O)[C@H](Cc2c[nH]cn2)NC(=O)[C@@H](C(C)(C)C)NC1=O [Compound 3, Ac-Arg-cyclo[Cys-D-Tle-His-D-Phe-Arg-Trp-Cys]-NH2] | 1 | 1 nM | 1 | 0.0007 µM | 0.7 nM | 930 | 672 nM | – | – | – | – | –
4 | CC(=O)N[C@@H](CCCNC(=N)N)C(=O)N[C@H]1CSSC[C@@H](C(N)=O)NC(=O)[C@H](Cc2c[nH]c3ccccc23)NC(=O)[C@H](CCCNC(=N)N)NC(=O)[C@@H](Cc2ccccc2)NC(=O)[C@H](Cc2c[nH]cn2)NC(=O)[C@@H](C(C)C)NC1=O [Compound 4, Ac-Arg-cyclo[Cys-D-Val-His-D-Phe-Arg-Trp-Cys]-NH2] | 0.93 | 1.25 nM | 1.19 | 0.00159 µM | 1.34 nM | 584 | 782 nM | – | – | – | – | –
5 | CC(=O)N[C@@H](CCCNC(=N)N)C(=O)N[C@H]1CSSC[C@@H](C(N)=O)NC(=O)[C@H](Cc2c[nH]c3ccccc23)NC(=O)[C@H](CCCNC(=N)N)NC(=O)[C@@H](Cc2ccccc2)NC(=O)[C@H](Cc2cncn2C)NC(=O)[C@@H](C)NC1=O [Compound 5, Ac-Arg-cyclo[Cys-D-Ala-His(3-Me)-D-Phe-Arg-Trp-Cys]-NH2] | 4 | – | 350 | – | – | 945 | – | 4.1 nM | 0.406 µM | 1.15 nM | 1080 nM | –
6 | CC(=O)N[C@@H](CCCNC(=N)N)C(=O)N[C@H]1CSSC[C@@H](C(N)=O)NC(=O)[C@H](Cc2c[nH]c3ccccc23)NC(=O)[C@H](CCCNC(=N)N)NC(=O)[C@@H](Cc2ccccc2)NC(=O)[C@H](Cc2cn(C)cn2)NC(=O)[C@@H](C)NC1=O [Compound 6, Ac-Arg-cyclo[Cys-D-Ala-His(1-Me)-D-Phe-Arg-Trp-Cys]-NH2] | 40 | – | 6 | – | – | 662 | – | 30.4 nM | 0.0043 µM | 0.7 nM | 467 nM | –
7 | CC(=O)N[C@@H](CCCNC(=N)N)C(=O)N[C@H]1CSSC[C@@H](C(N)=O)NC(=O)[C@H](Cc2c[nH]c3ccccc23)NC(=O)[C@H](CCCNC(=N)N)NC(=O)[C@@H](Cc2ccccc2)NC(=O)[C@H](Cc2c[nH]c3ccccc23)NC(=O)[C@@H](C)NC1=O [Compound 7, Ac-Arg-cyclo[Cys-D-Ala-Trp-D-Phe-Arg-Trp-Cys ]-NH2] (Ac-RC[dA]W[dF]RWC-NH2; disulfide 2-8) | 8 | 273 nM | >290 | – | 34 nM | 7 | 259 nM | – | – | – | – | > 10 µM
8 | CC(=O)N[C@@H](CCCNC(=N)N)C(=O)N[C@H]1CSSC[C@@H](C(N)=O)NC(=O)[C@H](Cc2c[nH]c3ccccc23)NC(=O)[C@H](CCCNC(=N)N)NC(=O)[C@@H](Cc2ccccc2)NC(=O)[C@H](CCC(N)=O)NC(=O)[C@@H](C)NC1=O [Compound 8, Ac-Arg-cyclo[Cys-D-Ala-Gln-D-Phe-Arg-Trp-Cys]-NH2] (Ac-RC[dA]Q[dF]RWC-NH2; disulfide 2-8) | 40 | 71 nM | 5 | 0.0086 µM | 1.6 nM | 155 | 255 nM | – | – | – | – | –
9 | CC(=O)N[C@@H](CCCNC(=N)N)C(=O)N[C@H]1CSSC[C@@H](C(N)=O)NC(=O)[C@H](Cc2c[nH]c3ccccc23)NC(=O)[C@H](CCCNC(=N)N)NC(=O)[C@@H](Cc2ccccc2)NC(=O)[C@H](CC(N)=O)NC(=O)[C@@H](C)NC1=O [Compound 9, Ac-Arg-cyclo[Cys-D-Ala-Asn-D-Phe-Arg-Trp-Cys]-NH2] (Ac-RC[dA]N[dF]RWC-NH2; disulfide 2-8) | 90 | 248 nM | 30 | 0.081 µM | 3 nM | 530 | 1490 nM | – | – | – | – | –
10 | CC(=O)N[C@@H](CCCNC(=N)N)C(=O)N[C@H]1CSSC[C@@H](C(N)=O)NC(=O)[C@H](Cc2c[nH]c3ccccc23)NC(=O)[C@H](CCCNC(=N)N)NC(=O)[C@@H](Cc2ccccc2)NC(=O)[C@H](CCCNC(=N)N)NC(=O)[C@@H](C)NC1=O [Compound 10, Ac-Arg-cyclo[Cys-D-Ala-Arg-D-Phe-Arg-Trp-Cys]-NH2] (Ac-RC[dA]R[dF]RWC-NH2; disulfide 2-8) | 2.31 | 6.2 nM | 1.45 | 0.0039 µM | 2.7 nM | – | – | – | – | – | – | –
11 | CC(=O)N[C@@H](CCCNC(=N)N)C(=O)N[C@H]1CSSC[C@@H](C(N)=O)NC(=O)[C@H](Cc2c[nH]c3ccccc23)NC(=O)[C@H](CCCNC(=N)N)NC(=O)[C@@H](Cc2ccccc2)NC(=O)[C@H](Cc2ccc(O)cc2)NC(=O)[C@@H](C)NC1=O [Compound 11, Ac-Arg-cyclo[Cys-D-Ala-Tyr-D-Phe-Arg-Trp-Cys]-NH2] (Ac-RC[dA]Y[dF]RWC-NH2; disulfide 2-8) | 6.67 | 301 nM | >22.2 | > 1 µM | 45.1 nM | – | – | – | – | – | – | –
12 | CC(=O)N[C@@H](CCCNC(=N)N)C(=O)N[C@H]1CSSC[C@@H](C(N)=O)NC(=O)[C@H](Cc2c[nH]c3ccccc23)NC(=O)[C@H](CCCNC(=N)N)NC(=O)[C@@H](Cc2ccccc2)NC(=O)[C@@H]2CCCN2C(=O)[C@@H](C)NC1=O [Compound 13, Ac-Arg-cyclo[Cys-D-Ala-Pro-D-Phe-Arg-Trp-Cys]-NH2] (Ac-RC[dA]P[dF]RWC-NH2; disulfide 2-8) | 5 | 280 nM | >200 | – | 56 nM | 13 | 707 nM | – | – | – | – | > 10 µM
13 | CC(=O)N[C@@H](CCCNC(=N)N)C(=O)N[C@H]1CSSC[C@@H](C(N)=O)NC(=O)[C@H](Cc2c[nH]c3ccccc23)NC(=O)[C@H](CCCNC(=N)N)NC(=O)[C@@H](Cc2ccc(F)cc2)NC(=O)[C@@H]2CCCN2C(=O)[C@@H](C)NC1=O [Compound 14, Ac-Arg-cyclo[Cys-D-Ala-Pro-D-Phe(p-F)-Arg-Trp-Cys]-NH2] (Ac-RC[dA]P[dPhe(4-F)]RWC-NH2; disulfide 2-8) | 7 | 169 nM | >400 | – | 24 nM | 12 | 283 nM | – | – | – | – | > 10 µM
14 | CC(=O)N[C@@H](CCCNC(=N)N)C(=O)N[C@H]1CCSSC[C@@H](C(N)=O)NC(=O)[C@H](Cc2c[nH]c3ccccc23)NC(=O)[C@H](CCCNC(=N)N)NC(=O)[C@@H](Cc2ccccc2)NC(=O)[C@H](C)NC1=O [Compound 15, Ac-Arg-cyclo[hCys-Ala-D-Phe-Arg-Trp-Cys]-NH2] (Ac-R[hCys]A[dF]RWC-NH2; disulfide 2-7) | 15 | 4 nM | 3.8 | 0.001 µM | 0.26 nM | 161 | 42 nM | – | – | – | – | –
